# Experimental data from patent US20160346313A1, “USES OF OLIGOURONATES IN CANCER TREATMENT” (NORWEGIAN UNIVERSITY OF SCIENCE AND TECHNOLOGY, priority 2013, published 2016).
# Test system: Capan-2 human pancreas tumour xenograft
# Test: Capan-2 human pancreas tumour xenograft model: tumour weight, with statistical analysis (ANOVA by day, Eav, log scale, exponential growth model)
# Assay type: in vivo, Female Athymic Nude mice
# Conditions: for Tumour weight, Difference vs Vehicle / Tumour weight, Estimate: Q3Dx4, G-Block IV, gemcitabine IP; for Estimate (mg), tumour weight geometric mean / Ratio vs Vehicle: Gemcitabine 5
# Procedure: Efficacy was assessed by comparison of tumour weights of treated groups with the vehicle control group on Day 11 and 74 and between combination groups and their respective single agents on Day 11 and 74.
# G-Block (Lot #PolyG 230712-Dp10, 95%G) was received as a white hygroscopic amorphous powder from NTNU Technology Transfer AS (Trondheim, Norway) and stored desiccated at room temperature until use. NTNU's G-Block was dissolved in MilliQ water to a concentration of 70 mg/ml to be used as the stock solution. This solution was used to deliver a dose of approximately 560 mg/kg in a 200 μl fixed dose. The 70 mg/ml solution was then diluted in 0.9% 150 mM NaCl (B. Braun Medical; Irvine, Calif.) to deliver doses of approximately 200 mg/kg, 75 mg/kg, 25 mg/kg, and 5 mg/kg in a 200 μL fixed dose volume. All dosing calculations assume a 25 g animal. NTNU's G-Block 70 mg/ml stock solution was formulated at the beginning of the study and used for dilutions before each dose, sterile filtered, and stored at 4° C. between doses. All unused dosing mixture was properly disposed of at TD2 after the study ended.
# All unused dosing mixture was properly disposed of at TD2 after each dose.
# Vehicle control was dosed with a solution of 0.9% 150 mM NaCl at a 10 ml/kg dose volume. Vehicle control was stored at room temperature.
# Capan-2 human pancreas tumour xenograft cell line was received from ATCC (Manassas, Va.). Cultures were maintained in McCoy's 5A medium (Hyclone, Logan, Utah) supplemented with 10% fetal bovine serum (Omega Scientific; Tarzana, Calif.), and housed in a 5% CO2 atmosphere. The cultures were expanded in tissue culture flasks at a 1:5 split ratio until a sufficient amount of cells were harvested.
# Female Athymic Nude mice (Hsd:Athymic Nude-Foxn1^nu) were supplied by Harlan (Germantown, N.Y.). Mice were received at 4 weeks of age. All mice were acclimated prior to handling. The mice were housed in microisolator cages (Lab Products, Seaford, Del.) and maintained under specific pathogen-free conditions. The mice were fed Tekland Global Diet® 2920× irradiated laboratory animal diet (Harlan, Indianapolis, Ind.) and autoclaved water was freely available. All procedures were carried out under the institutional guidelines of TGen Drug Development Institutional Animal Care and Use Committee (Protocol #13046).
# Female mice were inoculated subcutaneously in the right flank with 0.1 mL of a 50% RPMI/50% Matrigel™ (BD Biosciences, Bedford, Mass.) mixture containing a suspension of Capan-2 tumor cells (approximately 5.0×10^6 cells/mouse). Seven days following inoculation, tumors were measured using calipers and tumor weight was calculated using the animal study management software, Study Director V.2.1.1 (Study Log)^1. Eighty mice with tumor sizes of 101-194 mg were randomized into eight groups of ten mice each by random equilibration with a mean of approximately 140 mg, using Study Director (Day 1). Body weights were recorded when the mice were randomized and were taken twice weekly thereafter in conjunction with tumor measurements. Dosing was performed as described below in Table 1.
# All groups were terminated on Day 74. Mice were sacrificed prior to study end if tumor weight exceeded 1500 mg. Upon necropsy, tumors were excised from all animals in all groups and bisected in halves, placed in formalin vials (Azer Scientific/VWR; Franklin Lakes, N.J.) then fixed for approximately 24 hours before transferring to ethanol. Formalin-fixed tissues were embedded in paraffin, processed, and H & E stained.
# The following concerns a statistical analysis of tumour weights in the study reported in Example 2. […] Tumour weight and body weights were assessed Day 1 and then twice weekly up to last assessment on Day 74.
# Treatments were compared using an analysis of variance (ANOVA) model with fixed factor treatment and tumour weight at Day 1 as a covariate and assuming equal variance for each assessment (Day 1 model without covariate).
# [1] = 0-19 days, label number = dose mg/kg, Q3Dx4
# [2] = 0-29 days, label number = dose mg/kg, Q3Dx4
# [3] = 0-39 days, label number = dose mg/kg, Q3Dx4
# [4] = 0-50 days, label number = dose mg/kg, Q3Dx4
# [5] = 0-60 days, label number = dose mg/kg, Q3Dx4
# [6] = Day 1 (randomisation), label number = dose mg/kg
# [7] = Day 4, label number = dose mg/kg
# [8] = Day 8, label number = dose mg/kg
# [9] = Day 11, label number = dose mg/kg
# [10] = Day 16, label number = dose mg/kg
# [11] = Day 19, label number = dose mg/kg
# [12] = Day 22, label number = dose mg/kg
# [13] = Day 25, label number = dose mg/kg
# [14] = Day 29, label number = dose mg/kg
# [15] = Day 32, label number = dose mg/kg
# [16] = Day 36, label number = dose mg/kg
# [17] = Day 39, label number = dose mg/kg
# [18] = Day 43, label number = dose mg/kg
# [19] = Day 46, label number = dose mg/kg
# [20] = Day 50, label number = dose mg/kg
# [21] = Day 53, label number = dose mg/kg
# [22] = Day 57, label number = dose mg/kg
# [23] = Day 60, label number = dose mg/kg
# [24] = Day 64, label number = dose mg/kg
# [25] = Day 67, label number = dose mg/kg
# [26] = Day 71, label number = dose mg/kg
# [27] = Day 74, label number = dose mg/kg
smiles,measurement,setting,value
"Nc1ccn([C@@H]2O[C@H](CO)[C@@H](O)C2(F)F)c(=O)n1 [Gemcitabine 5, Gemcitabine]","Eau, 0-19 (average tumour weight = AUC / interval length), Estimate",[1],173.4 mg
same,"Eau, 0-19, Difference vs Vehicle",[1],-67.6 mg
same,"Eau, 0-29 (average tumour weight = AUC / interval length), Estimate",[2],195.5 mg
same,"Eau, 0-29, Difference vs Vehicle",[2],-93.6 mg
same,"Eau, 0-39 (average tumour weight = AUC / interval length), Estimate",[3],231.3 mg
same,"Eau, 0-39, Difference vs Vehicle",[3],-118.1 mg
same,"Eau, 0-50 (average tumour weight = AUC / interval length), Estimate",[4],292.1 mg
same,"Eau, 0-50, Difference vs Vehicle",[4],-121.2 mg
same,"Eau, 0-60 (average tumour weight = AUC / interval length), Estimate",[5],349.7 mg
same,"Eau, 0-60, Difference vs Vehicle",[5],-118.4 mg
same,"Consistent statistically significant effect versus Vehicle on tumour weight, up to Day",ANOVA by day,≤ 36
same,"Eav intervals with statistically significant effects versus Vehicle, up to",ANOVA of Eav,up to 50 days
same,"Tumour weight, Difference vs Vehicle",[6],-0.0 mg
same,"Tumour weight, Estimate",[6],140.7 mg
same,"Estimate (mg), tumour weight geometric mean",Day 1,138.6 mg
same,Ratio vs Vehicle,Day 1,1.00
same,"Estimate (mg), tumour weight geometric mean",Day 4,186.7 mg
same,"Tumour weight, Difference vs Vehicle",[7],14.1 mg
same,"Tumour weight, Estimate",[7],189.8 mg
same,"Estimate (mg), tumour weight geometric mean",Day 8,157.0 mg
same,Ratio vs Vehicle,Day 8,0.71
same,"Tumour weight, Difference vs Vehicle",[8],-69.0 mg
same,"Tumour weight, Estimate",[8],161.6 mg
same,"Estimate (mg), tumour weight geometric mean",Day 11,167.8 mg
same,Ratio vs Vehicle,Day 11,0.64
same,"Tumour weight, Difference vs Vehicle",[9],-111.0 mg
same,"Tumour weight, Estimate",[9],174.2 mg
same,"Estimate (mg), tumour weight geometric mean",Day 16,172.5 mg
same,Ratio vs Vehicle,Day 16,0.63
same,"Tumour weight, Difference vs Vehicle",[10],-116.3 mg
same,"Tumour weight, Estimate",[10],181.4 mg
same,"Estimate (mg), tumour weight geometric mean",Day 19,185.1 mg
same,Ratio vs Vehicle,Day 19,0.64
same,"Tumour weight, Difference vs Vehicle",[11],-119.5 mg
same,"Tumour weight, Estimate",[11],194.7 mg
same,"Estimate (mg), tumour weight geometric mean",Day 22,216.1 mg
same,Ratio vs Vehicle,Day 22,0.67
same,"Tumour weight, Difference vs Vehicle",[12],-122.5 mg
same,"Tumour weight, Estimate",[12],225.0 mg
same,"Estimate (mg), tumour weight geometric mean",Day 25,233.4 mg
same,Ratio vs Vehicle,Day 25,0.64
same,"Tumour weight, Difference vs Vehicle",[13],-157.9 mg
same,"Tumour weight, Estimate",[13],244.0 mg
same,"Estimate (mg), tumour weight geometric mean",Day 29,258.9 mg
same,Ratio vs Vehicle,Day 29,0.64
same,"Tumour weight, Difference vs Vehicle",[14],-164.9 mg
same,"Tumour weight, Estimate",[14],273.6 mg
same,"Estimate (mg), tumour weight geometric mean",Day 32,286.5 mg
same,Ratio vs Vehicle,Day 32,0.62
same,"Tumour weight, Difference vs Vehicle",[15],-208.5 mg
same,"Tumour weight, Estimate",[15],310.1 mg
same,"Estimate (mg), tumour weight geometric mean",Day 36,324.4 mg
same,Ratio vs Vehicle,Day 36,0.68
same,"Tumour weight, Difference vs Vehicle",[16],-190.3 mg
same,"Tumour weight, Estimate",[16],360.9 mg
same,"Estimate (mg), tumour weight geometric mean",Day 39,349.9 mg
same,Ratio vs Vehicle,Day 39,0.78
same,"Tumour weight, Difference vs Vehicle",[17],-165.4 mg
same,"Tumour weight, Estimate",[17],389.6 mg
same,"Estimate (mg), tumour weight geometric mean",Day 43,439.5 mg
same,Ratio vs Vehicle,Day 43,0.84
same,"Tumour weight, Difference vs Vehicle",[18],-138.1 mg
same,"Tumour weight, Estimate",[18],506.6 mg
same,"Estimate (mg), tumour weight geometric mean",Day 46,460.6 mg
same,Ratio vs Vehicle,Day 46,0.86
same,"Tumour weight, Difference vs Vehicle",[19],-107.4 mg
same,"Tumour weight, Estimate",[19],536.4 mg
same,"Estimate (mg), tumour weight geometric mean",Day 50,485.0 mg
same,Ratio vs Vehicle,Day 50,0.85
same,"Tumour weight, Difference vs Vehicle",[20],-130.4 mg
same,"Tumour weight, Estimate",[20],573.5 mg
same,"Estimate (mg), tumour weight geometric mean",Day 53,530.7 mg
same,Ratio vs Vehicle,Day 53,0.93
same,"Tumour weight, Difference vs Vehicle",[21],-61.2 mg
same,"Tumour weight, Estimate",[21],653.0 mg
same,"Estimate (mg), tumour weight geometric mean",Day 57,516.6 mg
same,Ratio vs Vehicle,Day 57,0.90
same,"Tumour weight, Difference vs Vehicle",[22],-144.3 mg
same,"Tumour weight, Estimate",[22],626.6 mg
same,"Estimate (mg), tumour weight geometric mean",Day 60,539.6 mg
same,Ratio vs Vehicle,Day 60,1.00
same,"Tumour weight, Difference vs Vehicle",[23],-84.5 mg
same,"Tumour weight, Estimate",[23],680.5 mg
same,"Estimate (mg), tumour weight geometric mean",Day 64,633.3 mg
same,"Tumour weight, Difference vs Vehicle",[24],76.1 mg
same,"Tumour weight, Estimate",[24],869.5 mg
same,"Estimate (mg), tumour weight geometric mean",Day 67,695.7 mg
same,"Tumour weight, Difference vs Vehicle",[25],85.1 mg
same,"Tumour weight, Estimate",[25],952.8 mg
same,"Estimate (mg), tumour weight geometric mean",Day 71,746.4 mg
same,"Tumour weight, Difference vs Vehicle",[26],54.2 mg
same,"Tumour weight, Estimate",[26],1078.5 mg
same,"Estimate (mg), tumour weight geometric mean",Day 74,746.3 mg
same,Ratio vs Vehicle,Day 74,1.33
same,"Tumour weight, Difference vs Vehicle",[27],157.2 mg
same,"Tumour weight, Estimate",[27],1009.1 mg
same,Estimated differences vs Vehicle in growth rates,"exponential model y=C*exp(a*t), t in days, data up to 60 days, label number = dose mg/kg",−0.0042
same,"Estimated differences between active treatments in growth rates, vs G-B 560","exponential model, data up to 60 days, contrast vs G-Block 560 mg/kg alone",−0.0015
